According to paper PMC9475448, “What a difference a methylene makes: replacing Glu with Asp or Aad in the Lys-urea-Glu pharmacophore of PSMA-targeting radioligands to reduce kidney and salivary gland uptake” (Theranostics, 2022):
Where “and” joins values, the source holds several entries; their conditions need not be identical. Identical values can stand only once. Each block holds one compound with its values, some of them ahead of it.

Legend:
[1] = target: T1, PSMA (Homo sapiens, UniProt Q04609); experiment: In vitro competition binding assay using LNCaP cells and [18F]DCFPyL as radioligand; conditions: displacement of [18F]DCFPyL from LNCaP cells, n = 3; read-out: PSMA binding affinity (Ki)
T1 construct: endogenous in cells; host or cells: LNCaP prostate cancer cells
T1 sequence (Q04609 whole entry): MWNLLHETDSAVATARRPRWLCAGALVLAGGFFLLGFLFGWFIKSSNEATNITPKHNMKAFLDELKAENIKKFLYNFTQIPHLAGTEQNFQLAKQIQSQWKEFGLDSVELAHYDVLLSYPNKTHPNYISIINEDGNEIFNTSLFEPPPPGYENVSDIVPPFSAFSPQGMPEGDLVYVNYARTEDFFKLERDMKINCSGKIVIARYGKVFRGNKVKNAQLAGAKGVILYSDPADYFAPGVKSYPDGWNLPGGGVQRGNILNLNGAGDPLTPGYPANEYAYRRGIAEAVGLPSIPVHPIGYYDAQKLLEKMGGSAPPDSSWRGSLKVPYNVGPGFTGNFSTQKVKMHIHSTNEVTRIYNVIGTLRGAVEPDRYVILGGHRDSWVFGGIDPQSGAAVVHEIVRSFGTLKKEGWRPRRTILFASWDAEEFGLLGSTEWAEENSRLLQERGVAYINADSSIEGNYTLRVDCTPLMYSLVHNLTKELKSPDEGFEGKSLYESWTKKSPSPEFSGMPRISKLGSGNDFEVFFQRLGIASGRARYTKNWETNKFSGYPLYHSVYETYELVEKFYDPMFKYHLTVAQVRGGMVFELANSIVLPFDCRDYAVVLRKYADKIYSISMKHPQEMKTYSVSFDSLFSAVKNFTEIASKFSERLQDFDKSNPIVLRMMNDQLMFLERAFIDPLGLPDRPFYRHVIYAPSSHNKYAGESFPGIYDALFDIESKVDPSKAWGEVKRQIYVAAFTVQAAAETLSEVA
Description: The binding assays were conducted following previously published procedures using LNCaP cells and [^18F]DCFPyL as the radioligand [17]-[19]. Briefly, LNCaP cells (400,000/well) were plated onto a 24-well poly-D-lysine coated plate for 48 h. Growth media was removed and replaced with HEPES buffered saline (50 mM HEPES, pH 7.5, 0.9% sodium chloride) and the cells were incubated for 1 h at 37 °C. [^18F]DCFPyL (0.1 nM) was added to each well (in triplicate) containing various concentrations (0.5 mM - 0.05 nM) of tested nonradioactive Ga-complexed compounds. Non-specific binding was determined in the presence of 10 µM non-radiolabeled DCFPyL. The assay mixtures were further incubated for 1 h at 37 °C with gentle agitation. Then, the buffer and radioligand were removed, and cells were washed twice with cold HEPES buffered saline. To harvest the cells, 400 µL of 0.25 % trypsin solution was added to each well. Radioactivity was measured on a PerkinElmer (Waltham, MA) Wizard2 2480 automatic gamma counter. Data analyses of Ki were performed using the nonlinear regression algorithm of GraphPad (San Diego, CA) Prism 7 software.

[2] = system: LNCaP tumor-bearing mice; experiment: Ex vivo biodistribution of 68Ga-labeled ligands in LNCaP tumor-bearing NSG mice
[3] = system: LNCaP tumor-bearing mice; experiment: Radioligand therapy study in LNCaP tumor-bearing NRG mice; conditions: 500 pmol nonradioactive
[4] = 1 h post-injection, listed as [68Ga]Ga-HTK03189A
[5] = 1 h post-injection, listed as [68Ga]Ga-HTK03189B
[6] = 1 h blocked, co-injected with DCFPyL (0.5 mg)
[7] = 1 h post-injection, listed as [68Ga]Ga-HTK03149
[8] = co-injection of DCFPyL (0.5 mg), 1 h post-injection
[9] = 1 h post-injection, listed as [68Ga]Ga-HTK03161

Structure (SMILES): O=C([O-])CN1CCN(CC(=O)[O-])CCN(CC(=O)NCC2CCC(C(=O)NC(Cc3c4ccccc4cc4ccccc34)C(=O)NCCCCC(NC(=O)NC(CCCCC(=O)O)C(=O)O)C(=O)O)CC2)CCN(CC(=O)[O-])CC1.[Ga+3] (single isomer, unassigned) [Ga-HTK03189A]
Ki [1]: 550 ± 35.7 nM

Structure (SMILES): O=C([O-])CN1CCN(CC(=O)[O-])CCN(CC(=O)NCC2CCC(C(=O)NC(Cc3c4ccccc4cc4ccccc34)C(=O)NCCCCC(NC(=O)NC(CCCC(=O)O)C(=O)O)C(=O)O)CC2)CCN(CC(=O)[O-])CC1.[Ga+3] (centres unmarked) [Ga-HTK03149]
Ki [1]: 6.99 ± 0.8 nM

Structure (SMILES): O=C([O-])CN1CCN(CC(=O)[O-])CCN(CC(=O)NCC2CCC(C(=O)NC(Cc3c4ccccc4cc4ccccc34)C(=O)NCCCCC(NC(=O)NC(CC(=O)O)C(=O)O)C(=O)O)CC2)CCN(CC(=O)[O-])CC1.[Ga+3] (centres unmarked) [Ga-HTK03161]
Ki [1]: 3.88 ± 0.66 nM

Structure (SMILES): O=C([O-])CN1CCN(CC(=O)[O-])CCN(CC(=O)NCC2CCC(C(=O)NC(Cc3c4ccccc4cc4ccccc34)C(=O)NCCCCC(NC(=O)NC(CCCC(=O)O)C(=O)O)C(=O)O)CC2)CCN(CC(=O)[O-])CC1.[Lu+3] (centres unmarked) [Lu-HTK03149]
Median survival [3]: 18 days
Ki [1]: 1.57 ± 0.42 nM

Structure (SMILES): O=C([O-])CN1CCN(CC(=O)[O-])CCN(CC(=O)NCC2CCC(C(=O)NC(Cc3c4ccccc4cc4ccccc34)C(=O)NCCCCC(NC(=O)NC(CCCC(=O)O)C(=O)O)C(=O)O)CC2)CCN(CC(=O)[O-])CC1.[68Ga+3] (centres unmarked) [[^68Ga]Ga-HTK03149]
Adrenal glands uptake [2, 6]: 0.22 ± 0.03 %IA/g
Blood uptake [2, 6]: 0.67 ± 0.04 %IA/g
Blood:Salivary gland uptake ratio [2, 6]: 4.80 ± 0.54
Bone uptake [2, 6]: 0.07 ± 0.01 %IA/g
Brain uptake [2, 6]: 0.02 ± 0.00 %IA/g
Fat uptake [2, 6]: 0.08 ± 0.01 %IA/g
Heart uptake [2, 6]: 0.19 ± 0.01 %IA/g
Intestines uptake [2, 6]: 0.21 ± 0.04 %IA/g
Kidneys uptake [2, 6]: 1.93 ± 0.39 %IA/g
Lacrimal glands uptake [2, 6]: 0.14 ± 0.08 %IA/g
Liver uptake [2, 6]: 0.22 ± 0.03 %IA/g
Lungs uptake [2, 6]: 0.49 ± 0.03 %IA/g
Muscle uptake [2, 6]: 0.08 ± 0.01 %IA/g
Pancreas uptake [2, 6]: 0.12 ± 0.01 %IA/g
Salivary glands uptake [2, 6]: 0.14 ± 0.01 %IA/g
Spleen uptake [2, 6]: 0.15 ± 0.04 %IA/g
Stomach uptake [2, 6]: 0.04 ± 0.00 %IA/g
Testes uptake [2, 6]: 0.19 ± 0.02 %IA/g
Thyroid uptake [2, 6]: 0.18 ± 0.01 %IA/g
Tumor uptake [2, 6]: 0.77 ± 0.06 %IA/g
Tumor:Blood uptake ratio [2, 6]: 1.16 ± 0.13
Tumor:Kidney uptake ratio [2, 6]: 0.41 ± 0.09
Tumor:Muscle uptake ratio [2, 6]: 7.18 ± 3.58
Tumor:Salivary gland uptake ratio [2, 6]: 5.53 ± 0.39
Adrenal glands uptake ([2]; 1 h post-injection): 0.33 ± 0.11 %IA/g
Blood uptake ([2]; 1 h post-injection): 0.70 ± 0.17 %IA/g
Blood:Salivary gland uptake ratio ([2]; 1 h post-injection): 3.21±0.64
Bone uptake ([2]; 1 h post-injection): 0.11 ± 0.04 %IA/g
Brain uptake ([2]; 1 h post-injection): 0.02 ± 0.00 %IA/g
Fat uptake ([2]; 1 h post-injection): 0.17 ± 0.15 %IA/g
Heart uptake ([2]; 1 h post-injection): 0.21 ± 0.03 %IA/g
Intestines uptake ([2]; 1 h post-injection): 0.24 ± 0.05 %IA/g
Kidneys uptake ([2]; 1 h post-injection): 4.15±1.46 %IA/g
Lacrimal glands uptake ([2]; 1 h post-injection): 0.15 ± 0.09 %IA/g
Liver uptake ([2]; 1 h post-injection): 0.25 ± 0.06 %IA/g
Lungs uptake ([2]; 1 h post-injection): 0.53 ± 0.09 %IA/g
Muscle uptake ([2]; 1 h post-injection): 0.11 ± 0.04 %IA/g
Pancreas uptake ([2]; 1 h post-injection): 0.13 ± 0.02 %IA/g
Salivary glands uptake ([2]; 1 h post-injection): 0.22±0.06 %IA/g
Spleen uptake ([2]; 1 h post-injection): 0.27 ± 0.05 %IA/g
Stomach uptake ([2]; 1 h post-injection): 0.07 ± 0.01 %IA/g
Testes uptake ([2]; 1 h post-injection): 0.23 ± 0.13 %IA/g
Thyroid uptake ([2]; 1 h post-injection): 0.20 ± 0.05 %IA/g
Tumor uptake ([2]; 1 h post-injection): 19.1±6.37 %IA/g
Tumor:Blood uptake ratio ([2]; 1 h post-injection): 29.5±15.8
Tumor:Kidney uptake ratio ([2]; 1 h post-injection): 5.44±3.88 and > 5.0
Tumor:Muscle uptake ratio ([2]; 1 h post-injection): 185±79.6
Tumor:Salivary gland uptake ratio ([2]; 1 h post-injection): 97.3±59.2
Kidneys uptake [2, 7]: 4.15 ± 1.46 %IA/g
Salivary glands uptake [2, 7]: 0.22 ± 0.06 %IA/g
Tumor uptake [2, 7]: 19.1 ± 6.37 %IA/g
Reduction of average uptake in LNCaP tumor xenografts by blocking [2, 8]: 96%
Reduction of average uptake in kidneys by blocking [2, 8]: 53%
Reduction of average uptake in salivary glands by blocking [2, 8]: 36%

Structure (SMILES): O=C([O-])CN1CCN(CC(=O)[O-])CCN(CC(=O)NCC2CCC(C(=O)NC(Cc3c4ccccc4cc4ccccc34)C(=O)NCCCCC(NC(=O)NC(CC(=O)O)C(=O)O)C(=O)O)CC2)CCN(CC(=O)[O-])CC1.[68Ga+3] (centres unmarked) [[^68Ga]Ga-HTK03161]
Adrenal glands uptake ([2]; 1 h post-injection): 0.41 ± 0.07 %IA/g
Blood uptake ([2]; 1 h post-injection): 1.13 ± 0.19 %IA/g
Blood:Salivary gland uptake ratio ([2]; 1 h post-injection): 5.08±0.62
Bone uptake ([2]; 1 h post-injection): 0.11 ± 0.02 %IA/g
Brain uptake ([2]; 1 h post-injection): 0.02 ± 0.00 %IA/g
Fat uptake ([2]; 1 h post-injection): 0.15 ± 0.04 %IA/g
Heart uptake ([2]; 1 h post-injection): 0.32 ± 0.05 %IA/g
Intestines uptake ([2]; 1 h post-injection): 0.31 ± 0.09 %IA/g
Kidneys uptake ([2]; 1 h post-injection): 4.41±1.26 %IA/g
Lacrimal glands uptake ([2]; 1 h post-injection): 0.12 ± 0.06 %IA/g
Liver uptake ([2]; 1 h post-injection): 0.28 ± 0.05 %IA/g
Lungs uptake ([2]; 1 h post-injection): 0.75 ± 0.13 %IA/g
Muscle uptake ([2]; 1 h post-injection): 0.15 ± 0.04 %IA/g
Pancreas uptake ([2]; 1 h post-injection): 0.18 ± 0.03 %IA/g
Salivary glands uptake ([2]; 1 h post-injection): 0.23±0.05 %IA/g
Spleen uptake ([2]; 1 h post-injection): 0.27 ± 0.06 %IA/g
Stomach uptake ([2]; 1 h post-injection): 0.10 ± 0.04 %IA/g
Testes uptake ([2]; 1 h post-injection): 0.54 ± 0.51 %IA/g
Thyroid uptake ([2]; 1 h post-injection): 0.29 ± 0.05 %IA/g
Tumor uptake ([2]; 1 h post-injection): 12.7±1.91 %IA/g
Tumor:Blood uptake ratio ([2]; 1 h post-injection): 11.4 ± 1.73
Tumor:Kidney uptake ratio ([2]; 1 h post-injection): 3.03 ± 0.84
Tumor:Muscle uptake ratio ([2]; 1 h post-injection): 89.4 ± 36.1
Tumor:Salivary gland uptake ratio ([2]; 1 h post-injection): 57.2 ± 7.11
Kidneys uptake [2, 9]: 4.41 ± 1.26 %IA/g
Salivary glands uptake [2, 9]: 0.23 ± 0.05 %IA/g
Tumor uptake [2, 9]: 12.7 ± 1.91 %IA/g

The remaining lines, values ahead:

Higher tumor uptake than [68Ga]Ga-HTK03189B ([2]; 1 h post-injection): ~ 2 fold
Adrenal glands uptake [2, 4]: 0.35 ± 0.06 %IA/g
Blood uptake [2, 4]: 0.89 ± 0.22 %IA/g
Blood:Salivary gland uptake ratio [2, 4]: 4.39 ± 0.44
Bone uptake [2, 4]: 0.12 ± 0.03 %IA/g
Brain uptake [2, 4]: 0.02 ± 0.00 %IA/g
Fat uptake [2, 4]: 0.18 ± 0.11 %IA/g
Heart uptake [2, 4]: 0.24 ± 0.06 %IA/g
Intestines uptake [2, 4]: 0.31 ± 0.18 %IA/g
Kidneys uptake [2, 4]: 2.65 ± 0.69 %IA/g
Lacrimal glands uptake [2, 4]: 0.18 ± 0.18 %IA/g
Liver uptake [2, 4]: 0.34 ± 0.15 %IA/g
Lungs uptake [2, 4]: 0.68 ± 0.12 %IA/g
Muscle uptake [2, 4]: 0.14 ± 0.04 %IA/g
Pancreas uptake [2, 4]: 0.15 ± 0.04 %IA/g
Salivary glands uptake [2, 4]: 0.20 ± 0.04 %IA/g
Spleen uptake [2, 4]: 0.21 ± 0.10 %IA/g
Stomach uptake [2, 4]: 0.11 ± 0.06 %IA/g
Testes uptake [2, 4]: 0.23 ± 0.11 %IA/g
Thyroid uptake [2, 4]: 0.25 ± 0.05 %IA/g
Tumor uptake [2, 4]: 2.10 ± 0.28 %IA/g
Tumor:Blood uptake ratio [2, 4]: 2.41 ± 0.29
Tumor:Kidney uptake ratio [2, 4]: 0.83 ± 0.21
Tumor:Muscle uptake ratio [2, 4]: 16.5 ± 4.08
Tumor:Salivary gland uptake ratio [2, 4]: 10.5 ± 1.07
Tumor uptake ([2]; 1 h post-injection, listed as [^68Ga]Ga-HTK0189A): 2.10±0.28 %IA/g
Structure (SMILES): O=C([O-])CN1CCN(CC(=O)[O-])CCN(CC(=O)NCC2CCC(C(=O)NC(Cc3c4ccccc4cc4ccccc34)C(=O)NCCCCC(NC(=O)NC(CCCCC(=O)O)C(=O)O)C(=O)O)CC2)CCN(CC(=O)[O-])CC1.[68Ga+3] (single isomer, unassigned) [[^68Ga]Ga-HTK03189A]

Tumor uptake ([2]; 1 h post-injection): 0.67±0.15 %IA/g
Adrenal glands uptake [2, 5]: 0.37 ± 0.15 %IA/g
Blood uptake [2, 5]: 1.06 ± 0.25 %IA/g
Blood:Salivary gland uptake ratio [2, 5]: 4.86 ± 1.16
Bone uptake [2, 5]: 0.10 ± 0.02 %IA/g
Brain uptake [2, 5]: 0.03 ± 0.00 %IA/g
Fat uptake [2, 5]: 0.17 ± 0.10 %IA/g
Heart uptake [2, 5]: 0.30 ± 0.06 %IA/g
Intestines uptake [2, 5]: 0.28 ± 0.07 %IA/g
Kidneys uptake [2, 5]: 2.13 ± 0.45 %IA/g
Lacrimal glands uptake [2, 5]: 0.13 ± 0.04 %IA/g
Liver uptake [2, 5]: 0.39 ± 0.08 %IA/g
Lungs uptake [2, 5]: 0.82 ± 0.22 %IA/g
Muscle uptake [2, 5]: 0.12 ± 0.03 %IA/g
Pancreas uptake [2, 5]: 0.18 ± 0.05 %IA/g
Salivary glands uptake [2, 5]: 0.22 ± 0.04 %IA/g
Spleen uptake [2, 5]: 0.20 ± 0.05 %IA/g
Stomach uptake [2, 5]: 0.11 ± 0.03 %IA/g
Testes uptake [2, 5]: 0.26 ± 0.05 %IA/g
Thyroid uptake [2, 5]: 0.29 ± 0.08 %IA/g
Tumor uptake [2, 5]: 0.67 ± 0.15 %IA/g
Tumor:Blood uptake ratio [2, 5]: 0.65 ± 0.15
Tumor:Kidney uptake ratio [2, 5]: 0.32 ± 0.05
Tumor:Muscle uptake ratio [2, 5]: 5.68 ± 1.12
Tumor:Salivary gland uptake ratio [2, 5]: 3.08 ± 0.53
Structure (SMILES): O=C([O-])CN1CCN(CC(=O)[O-])CCN(CC(=O)NCC2CCC(C(=O)NC(Cc3c4ccccc4cc4ccccc34)C(=O)NCCCCC(NC(=O)NC(CCCCC(=O)O)C(=O)O)C(=O)O)CC2)CCN(CC(=O)[O-])CC1.[68Ga+3] (single isomer, unassigned) [[^68Ga]Ga-HTK03189B]
